Patent US20140235545A1, “The use of HCV immunogenic peptide or a derivative thereof in the prevention or treatment of arthritis” (priority 2011, published 2014)
Entries after “also recorded” stand apart in the source; their conditions may differ. No end group written: not given here.

System: combined collagen-adjuvant induced arthritis (calf type II collagen in combination with Freund's complete adjuvant)
Test: Protective effect of peptide A on combined collagen-adjuvant induced arthritis in rats
Assay type: in vivo, SD rats
Details: for ankle joint swelling value: X±SD; for ankle joint swelling value / Lesion scoring ( X ± SD), joint lesion severity: n=10; for inhibition rate of ankle joint swelling: vs model group; for Lesion scoring ( X ± SD), joint lesion severity / state of joint synovial tissue (HE sections): 32nd day; for Lesion scoring ( X ± SD), joint lesion severity: left rear ankle joint histopathology, lower score = milder
Excerpt: SPF-level SD rats, each weighting 180 g˜220 g, with male and female each in half, provided by Experimental Animal Center of Chinese Academy of Military Medical.
Peptide with the following sequence is used: GQTYTSG (hereinafter referred to as peptide A), which is synthesized by solid phase peptide synthesis method using 413A automatic peptide synthesizer (available from Perkin Elmer Corporation), the detailed synthetic steps is described in Example 1 of PCT/CN2006/001176. The peptide was to be dissolved in physiological saline when used.
SD rats, with male and female each in half, were randomly divided into five groups with 10 rats in each group, respectively are model group (employing physiological saline, calf type II collagen and Freund's complete adjuvant); control group (employing the same volume of physiological saline as the model group); peptide A high, medium and low dose groups (employing calf type II collagen, Freund's complete adjuvant and peptide A, wherein each group is given different doses of peptide A, respectively are 174 μg/kg·d, 87 μg/kg·d and 43.5 μg/kg·d, peptide A is dissolved in physiological saline to form peptide A solution with desired concentration). Peptide A solution in each dose was administered by subcutaneous injection, 0.1 ml of peptide A solution per 100 g body weight of rats. The control group employed the same amount of physiological saline as that of the peptide A solution (0.1 ml of physiological saline per 100 g body weight of rats).
10 mg of calf type II collagen was dissolved into 5 ml 0.1 mol/L of acetic acid solution, and then the resulting solution was placed in a refrigerator at 4° C. overnight, the next day, the solution was mixed with Freund's complete adjuvant in a volume ratio of 1:1, the resulting mixture is sucked and discharged repeatedly by a syringe, until the mixture was emulsified into an emulsion completely. Each group rats were administered according to the following manner. These rats were normally fed every day during the administration.
On the 1st day, except the control group, for rats of other groups (the model group and the peptide A high, medium and low dose groups), 0.5 ml of the emulsion (prepared by calf type II collagen and Freund's complete adjuvant as above) was subcutaneously injected into the base of the tail of every rat, and the injection site is pressed slightly for 30 s so that the emulsion was completely absorbed. On the 8th day, emulsion injection is conducted again in the same way, 0.5 ml for every rat.
From the 2nd day (including this day), the rats of peptide A high, medium and low dose groups each were administered with corresponding dose of peptide A. Then, they were subcutaneously injected with corresponding dose of peptide A for one time every other day, a total of 15 times; at the same time, the rats of the control group and the model group were subcutaneously injected the same amount of physiological saline as that of peptide A for the high, medium and low dose groups every other day, a total of 15 times.
Measurement for the experimental results was conducted as follows. Firstly, before administration to rats of each group, left rear ankle circumference of each rat was measured by a flexible rule as a base value, and then circumference of left rear ankle with inflammation of each rat was measured at the 4th, 8th, 12th, 16th, 20th, 24th, 28th, and 32nd day, respectively. Swelling value obtained by circumference after inflammation minus circumference before inflammation was used to observe changes of primary and secondary inflammation of combined collagen-adjuvant induced rats.
Secondly, at the 32nd day, rats of each group were killed, and their left rear foot ankle joints ware quickly taken out, fixed in 10% formalin and then embedded in paraffin after decalcification, sectioned and stained with HE. […]

[1] = high dose 174 μg/kg·d s.c., the 4th day
[2] = high dose 174 μg/kg·d s.c., the 8th day
[3] = high dose 174 μg/kg·d s.c., the 12th day
[4] = high dose 174 μg/kg·d s.c., the 16th day
[5] = high dose 174 μg/kg·d s.c., the 20th day
[6] = high dose 174 μg/kg·d s.c., the 24th day
[7] = high dose 174 μg/kg·d s.c., the 28th day
[8] = high dose 174 μg/kg·d s.c., the 32nd day
[9] = low dose 43.5 μg/kg·d s.c., the 4th day
[10] = low dose 43.5 μg/kg·d s.c., the 8th day
[11] = low dose 43.5 μg/kg·d s.c., the 12th day
[12] = low dose 43.5 μg/kg·d s.c., the 16th day
[13] = low dose 43.5 μg/kg·d s.c., the 20th day
[14] = low dose 43.5 μg/kg·d s.c., the 24th day
[15] = low dose 43.5 μg/kg·d s.c., the 28th day
[16] = low dose 43.5 μg/kg·d s.c., the 32nd day
[17] = medium dose 87 μg/kg·d s.c., the 4th day
[18] = medium dose 87 μg/kg·d s.c., the 8th day
[19] = medium dose 87 μg/kg·d s.c., the 12th day
[20] = medium dose 87 μg/kg·d s.c., the 16th day
[21] = medium dose 87 μg/kg·d s.c., the 20th day
[22] = medium dose 87 μg/kg·d s.c., the 24th day
[23] = medium dose 87 μg/kg·d s.c., the 28th day
[24] = medium dose 87 μg/kg·d s.c., the 32nd day

## GQTYTSG [Peptide A]
All dose groups, effect in descending order high, medium, low
  arthritis lesion (histopathology) after administration: reduced in different degrees
[1]
  ankle joint swelling value: 7.3 ± 1.8 mm
  inhibition rate of ankle joint swelling: (20.6%)
[2]
  ankle joint swelling value: 8.2 ± 1.5 mm
  inhibition rate of ankle joint swelling: (34.4%)
[3]
  ankle joint swelling value: 9.5 ± 2.1 mm
  inhibition rate of ankle joint swelling: (30.1%)
[4]
  ankle joint swelling value: 9.8 ± 1.7 mm
  inhibition rate of ankle joint swelling: (35.5%)
[5]
  ankle joint swelling value: 10.2 ± 1.9 mm
  inhibition rate of ankle joint swelling: (41.4%)
[6]
  ankle joint swelling value: 10.5 ± 1.9 mm
  inhibition rate of ankle joint swelling: (44.1%)
[7]
  ankle joint swelling value: 11.4 ± 1.6 mm
  inhibition rate of ankle joint swelling: (38.7%)
[8]
  ankle joint swelling value: 12.0 ± 1.6 mm
  inhibition rate of ankle joint swelling: (30.6%)
High dose group (174 μg/kg·d s.c.)
  Lesion scoring ( X ± SD), joint lesion severity: 3.73 ± 1.57
High dose group (174 μg/kg·d)
  inhibition rate to the joint swelling: ~45%
High dose group, FIGS. 5a and 5b
  state of joint synovial tissue (HE sections): mild congestion of local synovial tissue of the rats, having no significant surface proliferation
high, medium and low dose groups, observation
  joint swelling compared with rats of the model group: significantly reduced joint swelling
high, medium and low dose groups, part of model rats had skin ulcers on the 24th day
  skin ulcer symptom: did not have skin ulcer symptom
[9]
  ankle joint swelling value: 8.8 ± 1.6 mm
  inhibition rate of ankle joint swelling: (4.3%)
[10]
  ankle joint swelling value: 10.2 ± 1.7 mm
  inhibition rate of ankle joint swelling: (18.4%)
[11]
  ankle joint swelling value: 11.2 ± 1.8 mm
  inhibition rate of ankle joint swelling: (17.6%)
[12]
  ankle joint swelling value: 12.3 ± 1.8 mm
  inhibition rate of ankle joint swelling: (19.1%)
[13]
  ankle joint swelling value: 13.4 ± 1.7 mm
  inhibition rate of ankle joint swelling: (23.0%)
[14]
  ankle joint swelling value: 14.6 ± 1.8 mm
  inhibition rate of ankle joint swelling: (22.3%)
[15]
  ankle joint swelling value: 14.8 ± 2.2 mm
  inhibition rate of ankle joint swelling: (20.4%)
[16]
  ankle joint swelling value: 14.5 ± 1.8 mm
  inhibition rate of ankle joint swelling: (16.2%)
Low dose group (43.5 μg/kg·d s.c.)
  Lesion scoring ( X ± SD), joint lesion severity: 4.36 ± 1.15
Low dose group, FIGS. 3a and 3b
  state of joint synovial tissue (HE sections): mild congestion and significant proliferation and surface projection of the synovial tissue, as well as mild degeneration of covering synovial cells
[17]
  ankle joint swelling value: 8.2 ± 1.5 mm
  inhibition rate of ankle joint swelling: (10.9%)
[18]
  ankle joint swelling value: 9.3 ± 2.2 mm
  inhibition rate of ankle joint swelling: (25.6%)
[19]
  ankle joint swelling value: 9.9 ± 1.8 mm
  inhibition rate of ankle joint swelling: (27.2%)
[20]
  ankle joint swelling value: 11.4 ± 1.6 mm
  inhibition rate of ankle joint swelling: (25.0%)
[21]
  ankle joint swelling value: 12.2 ± 1.7 mm
  inhibition rate of ankle joint swelling: (29.9%)
[22]
  ankle joint swelling value: 12.6 ± 2.1 mm
  inhibition rate of ankle joint swelling: (33.0%)
[23]
  ankle joint swelling value: 13.7 ± 1.8 mm
  inhibition rate of ankle joint swelling: (26.3%)
[24]
  ankle joint swelling value: 13.9 ± 1.7 mm
  inhibition rate of ankle joint swelling: (19.6%)
Medium dose group (87 μg/kg·d s.c.)
  Lesion scoring ( X ± SD), joint lesion severity: 4.12 ± 1.28
Medium dose group, FIGS. 4a and 4b
  state of joint synovial tissue (HE sections): mild congestion of local synovial tissue and infiltration of few inflammatory cells; also recorded: mild congestion, uneven surface and mild proliferation of the synovial tissue
